Results as given in patent US20180214583A1, “PHARMACEUTICAL COMBINATION FOR THE TREATMENT OF CANCER” (BAYER PHARMA AKTIENGESELLSCHAFT, priority 2015, published 2018).

Legend:
[1] = single dose 250 kBq per kg body weight; cited from earlier work
[2] = system: bone metastatic prostate tumors; experiment: Radium-223 with anti-PD-L1 immunotherapy in bone metastatic prostate cancer mice models; type: in vivo
Procedure: PD-L1 expression after Ra-223 treatment, and blocking PD-L1 combined with Ra-223 as a treatment for bone metastatic prostate cancer is examined in bone metastatic prostate cancer mice models.
The safety and efficacy of Ra-223 combined with anti-PD-L1 antibody versus Ra-223 or […] alone and radiation therapy as controls are tested. A genetically engineered mouse model (Pten/Smad4-null FVB mice, Ding et al., Nature 2011) is used. Treatments are initiated in mice with established tumors. The goal here is to evaluate treatment efficacy. At the experimental endpoint, tumor volume, metastatic burden (lung and liver) and mouse survival is measured.

[3] = system: diffuse large B-cell lymphoma (DLBCL); conditions: cited from earlier work

Compound: [Cl][223Ra][Cl] [radium-223, radium-223 dichloride]
- cases of grade 3 neutropenia [1]: 1/5
- observed adverse reactions [1]: diarrhea and reversible myelosuppression
- PD-L1 expression after treatment [2]: upregulates PD-L1 expression

Compound: CT-011: humanized IgG 1 monoclonal antibody against PD-1
- subjects progression-free at the end of the follow-up period ([3]; DLBCL subjects after autologous stem cell transplantation, preliminary results, control group 47%): 70%
- subjects alive ([3]; DLBCL subjects after autologous stem cell transplantation, preliminary results, control group 62%): 82%
- effect on natural killer cells ([3]; phase II trial): augments the activity of natural killer cells
